# Patent publication US20240246951A1, “COMPOUND HAVING BIOLOGICAL ACTIVITY SUCH AS ANTIVIRAL ACTIVITY” (NATIONAL CENTER FOR GLOBAL HEALTH AND MEDICINE, priority 2021, published 2024)
# System: SARS-CoV-2 variants (TX7-501, TY8-612, QHN001, K1734, K5356)
# Assay type: cell-based
# Conditions: variants of Table 4 instead of WK-521; data not shown
structure (smiles),measurement,value
"CC(C)(C)[C@H](NC(=O)C(F)(F)F)C(=O)N1C[C@H]2[C@@H]([C@H]1C(=O)N[C@@H](C[C@@H]1CCNC1=O)C(=O)c1nc3c(F)cccc3s1)C2(C)C [Compound 245, (1R,2S,5S)-3-((S)-3,3-dimethyl-2-(2,2,2-trifluoroacetamido)butanoyl)-N-((S)-1-(4-fluorobenzo[d]thiazol-2-yl)-1-oxo-3-((S)-2-oxopyrrolidin-3-yl)propan-2-yl)-6,6-dimethyl-3-azabicyclo[3.1.0]hexane-2-carboxamide]",antiviral activity against variants,excellent antiviral activities
